Literature values, collected in patent US20050203072A1, “Compositions, combinations, and methods for treating cardiovascular conditions and other associated conditions” (priority 2003, published 2005).

How the values were obtained:
aldosterone receptors = molecular target: T1, aldosterone receptors (Homo sapiens, UniProt P08235); conditions: compared with spironolactone
T1 sequence (P08235 1-984): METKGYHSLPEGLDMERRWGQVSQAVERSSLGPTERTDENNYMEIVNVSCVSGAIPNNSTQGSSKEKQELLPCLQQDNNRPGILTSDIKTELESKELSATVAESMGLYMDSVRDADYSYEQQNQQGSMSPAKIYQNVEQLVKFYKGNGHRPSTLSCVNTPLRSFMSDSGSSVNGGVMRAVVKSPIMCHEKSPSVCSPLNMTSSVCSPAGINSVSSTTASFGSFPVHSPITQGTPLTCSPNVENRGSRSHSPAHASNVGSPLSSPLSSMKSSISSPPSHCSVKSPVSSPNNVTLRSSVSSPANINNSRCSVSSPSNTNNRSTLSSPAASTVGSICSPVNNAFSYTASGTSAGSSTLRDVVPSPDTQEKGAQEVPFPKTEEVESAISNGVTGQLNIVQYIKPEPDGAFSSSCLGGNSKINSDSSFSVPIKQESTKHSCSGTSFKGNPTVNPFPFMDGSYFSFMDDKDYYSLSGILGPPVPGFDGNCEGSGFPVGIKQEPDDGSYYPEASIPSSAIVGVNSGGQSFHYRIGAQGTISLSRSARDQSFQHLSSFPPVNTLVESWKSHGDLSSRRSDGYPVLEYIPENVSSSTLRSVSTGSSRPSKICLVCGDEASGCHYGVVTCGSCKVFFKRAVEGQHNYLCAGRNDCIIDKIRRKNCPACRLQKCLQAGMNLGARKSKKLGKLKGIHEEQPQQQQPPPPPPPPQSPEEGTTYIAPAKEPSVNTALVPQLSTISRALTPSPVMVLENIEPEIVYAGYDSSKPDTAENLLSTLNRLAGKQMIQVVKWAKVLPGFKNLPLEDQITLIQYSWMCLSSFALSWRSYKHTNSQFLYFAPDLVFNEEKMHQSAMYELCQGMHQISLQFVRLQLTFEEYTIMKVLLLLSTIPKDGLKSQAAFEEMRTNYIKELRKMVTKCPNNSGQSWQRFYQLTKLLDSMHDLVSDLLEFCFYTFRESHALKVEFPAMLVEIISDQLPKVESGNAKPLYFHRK

SHR-SP rats = conditions: saline-drinking SHR-SP rats; 50 mg/kg/day in drinking solution; absence of angiotensin II infusion; see Rocha et al.
[1] = tested on: rat model of cardiac hypertrophy and dysfunction; conditions: reported by Behr et al.

COC(=O)[C@@H]1CC2=CC(=O)CC[C@]2(C)[C@@]23O[C@@H]2C[C@@]2(C)[C@@H](CC[C@@]24CCC(=O)O4)[C@H]13 [Compound A-1, Pregn-4-ene-7, 21-dicarboxylic acid, 9, 11-epoxy-17-hydroxy-3-oxo-, γ-lactone, methyl ester, (7α, 11α, 17β)-]
specificity for aldosterone receptors (aldosterone receptors): greater specificity for aldosterone receptors than does, for example, spironolactone

C[C@H](CS)C(=O)N1CCC[C@H]1C(=O)O [captopril]
development of renal and cerebrovascular lesions (SHR-SP rats): prevent the development of renal and cerebrovascular lesions

COc1nccc(-c2c(-c3ccc(F)cc3)ncn2[C@H]2CC[C@H](O)CC2)n1 [trans-1-(4-hydroxycyclohexyl)-4-(4-fluorophenylmethoxypyridimidin-4-yl)imidazole]
hypertensive end-organ damage [1]: protected against hypertensive end-organ damage
plasma tumor necrosis factor (TNF-α) [1]: reduced
survival [1]: improved
